PMC5267425, “Identification of small molecule modulators of HIV-1 Tat and Rev protein accumulation” (Retrovirology, 2017)

Columns and labels:
Assay type in all cases: cell-based
[1] = system: HIV-1 gene expression in HeLa rtTA HIV∆Mls cells; experiment: HIV-1 gene expression / virion production by p24 antigen ELISA, Dox-inducible provirus; details: for reduction of HIV-1 viral production relative to DMSO (+Dox): 791 30 µM, 833 2 µM, 892 15 µM, 24 h (Fig. 1); for IC50: Human immunodeficiency virus 1, HeLa
From the text: Effects of compound treatment on HIV-1 gene expression were initially assessed in the context of HeLa rtTA HIV∆Mls cells stably transduced with an inducible Tet-On HIV-1 system (as previously described). The provirus was modified by either deletion in the reverse transcriptase and integrase region of the pol gene by an MlsI restriction digest (HeLa rtTA HIV∆Mls cell line) or GFP fusion to Gag, deleting the PR and RT-coding regions (HeLa rtTA HIVGagGFP cell line). […] All cell lines were maintained in Iscove’s modified Delbecco’s medium (IMDM; Wisent) supplemented with 10% (vol/vol) fetal bovine serum (FBS, Wisent), 1% penicillin/streptomycin (P/S, Wisent) and 0.2% Amphotericin B (Wisent). Indicator cell line CEM-GXR was obtained from Dr. Mark Brockman (Simon Fraser University). The RTI-resistant virus (E00443) was obtained from Dr. Zabrina Brumme (Simon Fraser University). The HIV-1 clade A (97USSN54 (N54)), HIV-1 clade B (IIIB), integrase inhibitor resistant virus (11845), protease inhibitor resistant virus (2948) were obtained through the NIH AIDS Research and Reference reagent program, Division of AIDS, NIAID, NIH).
The compounds used in the treatment assay were obtained from ChemBridge. All compounds were solubilized to 10 mM or 1 mM stock concentrations in dimethyl sulfoxide (DMSO) and stored at −20 °C for subsequent experiments. Cells were incubated for 3–5 h in the presence of the compounds prior to induction with doxycycline (Dox) at a final concentration of 2 μg/mL. 24 h post compound treatment, culture medium was harvested, adjusted to 1% Triton X-100, and incubated at 37 °C for 1 h for p24 antigen ELISA. Cells were harvested in 2 mM EDTA, 1xPBS. RNA was isolated using Aurum Total RNA extraction kits (Bio-Rad), while total protein was extracted with RIPA buffer (1% NP-40, 0.1% SDS, 0.5% sodium deoxycholate, 150 mM NaCl, 50 mM Tris–HCl).
(§1) ELISA for p24 Gag antigen was performed on cell supernatants using kits purchased from Frederick National Laboratory for Cancer Research (Leidos) or XpressBio extended range kit and performed according to manufacturer’s instructions. Protein concentration in cell lysates was quantified by Bradford assay and equal amounts of protein run on 7, 10, 12, or 14% SDS-PAGE, depending on the protein of interest. Following transfer to PVDF (BioRad or Perkin-Elmer), blots were blocked in either 5% Milk-PBS-T (5% Milk, 0.05% Tween-20, 1× PBS) or 3% BSA-PBS-T (3% BSA, 0.05% Tween-20, 1× PBS) prior to incubating with primary antibody (all diluted in 3% BSA-PBS-T). Primary antibodies used were: purified mouse anti-p24 supernatant from anti-HIV-1 Gag hybridoma 183, mouse anti-gp120 hybridoma 902 (NIH AIDS Reagent Program), mouse monoclonal antibody to HIV-1 Rev (Abcam), rabbit polyclonal antibody to HIV-1 Tat (Abcam), mouse monoclonal antibody to p53 (Santa Cruz), rabbit purified IgG for Nap1 (provided by L. Frappier), rabbit polyclonal antibody to GAPDH (Sigma-Aldrich), or mouse monoclonal antibody to α-Tubulin (Sigma-Aldrich). Following incubation with appropriate secondary antibody, blots were visualized by ECL, ECL Plus (Perkin-Elmer), or Clarity Western ECL substrate (BioRad). Quantification of the relative intensity of the detected bands was done using ImageLab software and normalized to corresponding bands of the loading control (GAPDH or α-Tubulin).

p53 = experiment: Western blot of p53; details: 791 30 µM, 833 2 µM, 892 15 µM
Protocol: as §1

Nap1 = experiment: Western blot of Nap1; details: 791 30 µM, 833 2 µM, 892 15 µM, 24 h
Protocol: as §1

HIV-1 Tat = experiment: Tat protein decay in the presence of cycloheximide; details: cycloheximide 10 µg/ml (Figure S4)
Protocol: To assess effect of compounds on HIV-1 Tat stability, the decay of HIV-1 Tat levels was compared between DMSO-treated and compound-treated protein lysates in the presence of cycloheximide. In the first set of experiments, HIV-1 gene expression was induced with doxycylin (dox) for 24 h then 10 μg/mL cycloheximide was added to block new protein synthesis in combination with either DMSO or the compounds. Cells were harvested every 2 h and Tat protein levels measured by western blot. Quantification of the relative intensity of the detected bands was performed using ImageLab software (BioRad) and normalized to corresponding bands of the loading control (GAPDH) from at least three independent experiments. To determine whether the compounds’ effect on HIV-1 gene expression could be reversed by inhibition of the proteasome, compound treatment assay was performed as previously described with the addition of 10 μM MG132 (Sigma-Aldrich) to compound-treated cells 8 h prior to harvesting. Equal amounts of protein were run on 13 or 14% gels by SDS-PAGE, blotted and probed with antibodies for Tat and GAPDH. Quantification of the relative intensity of the detected bands was performed using ImageLab software (BioRad) and normalized to corresponding bands of the loading control (GAPDH) from at least three independent experiments.

Structure (SMILES) | reduction of HIV-1 viral production relative to DMSO (+Dox) [1] | IC50 [1] [µM] | p53 expression (p53) | reduction of Nap1 expression (Nap1) | half-life of HIV-1 Tat relative to DMSO (HIV-1 Tat) | reduction in Gag expression ([1]; 1.5 µM) [%]
Cc1cc(NCc2cccnc2)n2ncc(-c3ccc(Cl)cc3)c2n1 [Compound 791, 3-(4-chlorophenyl)-5-methyl-N-(3-pyridinylmethyl)pyrazolo[1,5-a]pyrimidin-7-amine] | 80–90% | 8.2 | approximately twofold | approximately 50% | do not alter | –
O=C(NC(=S)NNC(=O)c1ccccc1O)c1ccc(-c2ccccc2)cc1 [Compound 833, N-([2-(2-hydroxybenzoyl)hydrazino]carbonothioyl}-4-biphenylcarboxamide] | 80–90% | 0.6 | no effect | more variable | do not alter | 90
COc1ccc(C=NNC(=O)c2ccccc2O)cc1O [Compound 892, 2-hydroxy-N′-(3-hydroxy-4-methoxybenzylidene)benzohydrazide] | 80–90% | 1.8 | no effect | no effect | do not alter | –
